US9334256B2, “Agents and methods for treating ischemic and other diseases” (NoNO INC., priority 2011, dated 2016)

These compounds were tested against T1, TRPM7 (Mus musculus, UniProt Q923J1) (assay: PI uptake cell death assay in TRPM7-expressing HEK-293 cells (type of assay from Example 1)). Details: 5 μM; Table X; the lower the number, the more potent in protecting against cell death.
T1 construct: expressed in transfected cells; host or cells: HEK-293 tSA (HEK-293T) cells, transient transfection with Lipofectamine 2000
Assay type: cell-based, murine
Source text: The TRPM7 channel provides a pathway for mono- and divalent cations into the cell, and is unique in that it contains a functional C-terminal α-kinase domain. […] The induction of chemical anoxia in host cells such as recombinant HEK293 cells can be used to activate TRPM7. This activation is detectable with the use measurements of cellular calcium accumulation. This is achievable with the use of a fluorescent calcium indicator. Alternatively, this activation can also be measured using radiolabelled Ca2+ (^45Ca^2+) as described previously by Sattler et al. (Sattler et al., 1998) and Aarts et al. (Aarts et al., 2003).
Hoechst 33342 was purchased as a 10 mg/mL solution in water (Molecular Probes Inc., Eugene, Oreg.). Propidium iodide (PI) was purchased as a powder and prepared by dissolving in PBS at 1 mg/mL. PI solutions were stored at 4° C. until use. Hoechst and PI were added directly to cell culture to 5 μg/mL and 10 μg/mL respectively. Cells were incubated at room temperature or at 37° C. for 10 minutes to allow for adequate uptake, and fluorescence observed using a NIKON Eclipse TE2000 inverted microscope and TE-FM Epi-Fluorescence attachment (Nikon Canada).
Untransfected cells or cells transfected with the TRPM7/pTracer or ΔPDZ/pTracer construct were plated onto 24-well plates, 24-hours post-transfection. Untransfected cells were plated at 0.75×10^6 cells/well and transfected cells at 1×10^6 cells/well. The plates were coated with poly-D-lysine to strengthen cell adhesion and to minimize cell loss during washes. Cells were loaded by incubation with 5 μM fluo-3 AM and 0.02% pluronic in HBSS at 37° C. for 30 minutes. Following loading, cells were washed with an aglycaemic HBSS containing, in mM: 20 N-methyl-D-glucamine (NMDG), 121 NaCl, 5 KCl, 10 HEPES acid, 10 HEPES-Na salt, 3 NaHCO3, 1 Na-pyruvate, and 1.8 CaCl2, pH adjusted to 7.4 with HCl. Calcium uptake, as assessed by fluo-3 fluorescence, was measured in response to 0, 5, 10, 15, 20, or 25 mM sodium cyanide (NaCN; Mallinckrodt Baker Inc., Phillipsburg, N.J.) dissolved in aglycaemic HBSS. A 250 mM NaCN stock was prepared in water and stored at room temperature for up to 2 weeks. Measurements of fluo-3 fluorescence were taken over a 2 hour period at 10 minutes intervals at room temperature (22-25° C.). Calcium uptake assays were performed 48 hours post-transfection.
Cell death, as assessed by PI uptake, was examined at the end of the 2 hour calcium uptake assay. Cells were stained with 10 μg/mL PI and PI fluorescence measured using the Fluoroskan microplate reader (λ excitation=590 nm, λ emission=630 nm) and accompanying Ascent software (Thermo Electron Corp.). To obtain a reading of maximal fluorescence (Fmax), 0.5% Triton X-100 was added to each well and allowed to incubate for 20 minutes. Cell death assays were performed 48 hours post-transfection.
Data was entered into Excel (Microsoft, Seattle, Wash.) or SigmaPlot (SPSS Inc., Chicago, Ill.) for analysis. Pooled data are presented as the mean of at least 3 separate experiments±sem. Calcium uptake is expressed as a fraction of baseline uptake: ΔFt=(Ft−Fo)/Fo where Ft is the fluorescence at time t, and Fo is the fluorescence at baseline. Cell death is expressed as a percentage of total cell death: cell death (%)=Ft/Fmax×100 where Ft is the fluorescence at time t and Fmax is the maximal fluorescence obtained by permeabilization with Triton X-100. Concentration-response curves were fit by nonlinear regression with a 4 parameter logistic curve represented by the following equation: y=min+{(max−min)/[1+(x/EC50)n]} where y is the response at concentration x, min is the minimal response, max is the maximal response, EC50 is the concentration required for half-maximal response, and n is the Hill slope. Statistical analysis of data was carried out with a two-tailed Student's t test, or a one-way analysis of variance (ANOVA) followed by post hoc pairwise multiple comparisons testing using the Holm-Sidak method, where appropriate. […]

T1 sequence (Q923J1 whole entry): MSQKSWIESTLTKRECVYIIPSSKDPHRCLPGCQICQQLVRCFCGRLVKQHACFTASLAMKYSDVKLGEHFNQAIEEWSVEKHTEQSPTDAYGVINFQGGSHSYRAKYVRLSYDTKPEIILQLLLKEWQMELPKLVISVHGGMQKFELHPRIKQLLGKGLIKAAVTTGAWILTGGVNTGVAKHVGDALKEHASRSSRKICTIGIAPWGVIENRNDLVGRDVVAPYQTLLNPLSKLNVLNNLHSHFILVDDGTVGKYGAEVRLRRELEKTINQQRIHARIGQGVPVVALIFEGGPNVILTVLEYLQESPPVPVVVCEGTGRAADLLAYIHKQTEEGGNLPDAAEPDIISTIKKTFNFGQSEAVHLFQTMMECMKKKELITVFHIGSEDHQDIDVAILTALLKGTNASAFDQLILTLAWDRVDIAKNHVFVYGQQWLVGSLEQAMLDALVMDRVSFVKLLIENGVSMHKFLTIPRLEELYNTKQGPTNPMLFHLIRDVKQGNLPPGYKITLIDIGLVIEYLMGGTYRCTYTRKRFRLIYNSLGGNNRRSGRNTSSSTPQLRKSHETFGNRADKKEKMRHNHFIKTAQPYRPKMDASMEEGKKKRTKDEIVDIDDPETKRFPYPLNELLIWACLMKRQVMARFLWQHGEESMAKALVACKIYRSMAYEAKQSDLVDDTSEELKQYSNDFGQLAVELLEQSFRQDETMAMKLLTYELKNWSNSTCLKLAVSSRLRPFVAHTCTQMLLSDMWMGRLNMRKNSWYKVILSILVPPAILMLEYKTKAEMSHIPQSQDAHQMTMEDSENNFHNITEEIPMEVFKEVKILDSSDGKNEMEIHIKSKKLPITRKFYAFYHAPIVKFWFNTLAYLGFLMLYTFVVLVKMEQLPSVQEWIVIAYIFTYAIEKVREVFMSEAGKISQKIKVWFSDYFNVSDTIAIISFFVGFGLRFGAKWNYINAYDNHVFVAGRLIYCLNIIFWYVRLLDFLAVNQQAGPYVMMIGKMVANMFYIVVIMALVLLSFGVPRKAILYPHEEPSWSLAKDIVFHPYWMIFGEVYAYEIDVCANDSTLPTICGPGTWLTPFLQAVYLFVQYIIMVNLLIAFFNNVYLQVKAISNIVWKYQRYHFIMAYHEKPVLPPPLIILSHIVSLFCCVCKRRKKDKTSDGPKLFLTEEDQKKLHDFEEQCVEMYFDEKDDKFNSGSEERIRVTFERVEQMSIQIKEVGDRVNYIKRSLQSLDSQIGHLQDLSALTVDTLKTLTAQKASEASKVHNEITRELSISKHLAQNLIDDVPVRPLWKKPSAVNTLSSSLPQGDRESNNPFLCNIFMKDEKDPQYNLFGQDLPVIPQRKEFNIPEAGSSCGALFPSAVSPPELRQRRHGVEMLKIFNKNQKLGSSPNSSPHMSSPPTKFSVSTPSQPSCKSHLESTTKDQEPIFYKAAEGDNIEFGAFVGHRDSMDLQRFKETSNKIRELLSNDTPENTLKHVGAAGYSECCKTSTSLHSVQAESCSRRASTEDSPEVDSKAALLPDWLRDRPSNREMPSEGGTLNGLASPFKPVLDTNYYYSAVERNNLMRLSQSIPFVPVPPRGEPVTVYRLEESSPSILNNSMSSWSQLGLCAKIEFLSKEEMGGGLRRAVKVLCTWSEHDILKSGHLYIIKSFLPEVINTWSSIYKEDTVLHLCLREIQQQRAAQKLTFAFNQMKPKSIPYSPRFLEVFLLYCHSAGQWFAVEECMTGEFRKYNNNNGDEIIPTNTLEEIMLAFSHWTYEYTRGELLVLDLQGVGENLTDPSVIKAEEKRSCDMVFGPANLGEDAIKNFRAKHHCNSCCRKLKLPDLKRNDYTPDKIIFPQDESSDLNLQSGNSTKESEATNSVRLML

Compound	Normalized ratio of PI uptake (5 μM)
COc1cc(OC)c2c(C)c(Cc3ccc(Cl)cc3)c(=O)[nH]c2c1 [Compound 93]	0.071
COc1cc(OC)c2c(C)c(Cc3cccc(Cl)c3)c(=O)[nH]c2c1 [Compound 94]	0.073
Cc1ccc(N(Cc2ccncc2)C(=O)c2sc3ccccc3c2Cl)c(C)c1 [Compound 98]	0.36
COc1ccc(C)c(N(Cc2cccc(C)n2)C(=O)c2sc3ccccc3c2Cl)c1 [Compound 102]	0.206
COc1ccc(C)c(N(CC(=O)c2cccs2)C(=O)c2sc3ccccc3c2Cl)c1 [Compound 103]	0.444
Cc1ccc(N(Cc2ccc3ccccc3n2)C(=O)c2sc3ccccc3c2Cl)c(C)c1 [Compound 104]	0.307
COc1ccc(C)c(N(Cc2ccc3ccccc3n2)C(=O)c2sc3ccccc3c2Cl)c1 [Compound 105]	0.07
Cc1ccc(N(Cc2cccnc2)C(=O)c2sc3ccccc3c2Cl)c(C)c1 [Compound 106]	0
COc1cc2ccnc(-c3sc4ccccc4c3Cl)c2cc1OC [Compound 108]	0.038
COc1cccc2c1CCN=C2c1sc2ccccc2c1Cl [Compound 110]	0.037
Fc1cccc2c1CCN=C2c1sc2ccccc2c1Cl [Compound 112]	0.666
Cc1cccc2sc(C3=NCCc4ccc(Cl)cc43)c(Cl)c12 [Compound 116]	0.788
COc1ccc2c(c1)C(c1sc3ccccc3c1Cl)NCC2 (centres unmarked) [Compound 124]	0
Clc1cccc2c1CCNC2c1sc2ccccc2c1Cl (centres unmarked) [Compound 125]	0.363
COc1cc2c(cc1OC)C(c1sc3cc(OC)c(OC)cc3c1Cl)NCC2 (centres unmarked) [Compound 126]	0.012
Cc1cccc2sc(C3NCCc4c(F)cccc43)c(Cl)c12 (centres unmarked) [Compound 127]	0.038
COc1ccc2c(c1)C(c1sc3cccc(C)c3c1Cl)NCC2 (centres unmarked) [Compound 128]	0.01
CCN1CCc2cc(OC)c(OC)cc2C1c1sc2ccccc2c1Cl (centres unmarked) [Compound 129]	0.05

Same assay, conditions: 5 μM; Table Y, commercially available compounds

Compound	Normalized ratio of PI uptake (5 μM)
COc1ccc(-c2n[nH]cc2CN(C)Cc2cc3ccccc3s2)cc1F [Ambcb42783454 #13, reference compound]	0.498

Same assay, conditions: 10 μM; Table X; the lower the number, the more potent

Compound	Normalized ratio of PI uptake (10 μM)
COc1cc(OC)c2c(C)c(Cc3ccc(Cl)cc3)c(=O)[nH]c2c1 [Compound 93]	0.041
COc1cc(OC)c2c(C)c(Cc3cccc(Cl)c3)c(=O)[nH]c2c1 [Compound 94]	0.042
Cc1ccc(N(Cc2ccncc2)C(=O)c2sc3ccccc3c2Cl)c(C)c1 [Compound 98]	0.067
COc1ccc(C)c(N(Cc2cccc(C)n2)C(=O)c2sc3ccccc3c2Cl)c1 [Compound 102]	0.059
COc1ccc(C)c(N(CC(=O)c2cccs2)C(=O)c2sc3ccccc3c2Cl)c1 [Compound 103]	0.312
Cc1ccc(N(Cc2ccc3ccccc3n2)C(=O)c2sc3ccccc3c2Cl)c(C)c1 [Compound 104]	0.094
COc1ccc(C)c(N(Cc2ccc3ccccc3n2)C(=O)c2sc3ccccc3c2Cl)c1 [Compound 105]	0.17
Cc1ccc(N(Cc2cccnc2)C(=O)c2sc3ccccc3c2Cl)c(C)c1 [Compound 106]	0.054
COc1cc2ccnc(-c3sc4ccccc4c3Cl)c2cc1OC [Compound 108]	0.11
COc1cccc2c1CCN=C2c1sc2ccccc2c1Cl [Compound 110]	0.06
Fc1cccc2c1CCN=C2c1sc2ccccc2c1Cl [Compound 112]	0.244
Cc1cccc2sc(C3=NCCc4ccc(Cl)cc43)c(Cl)c12 [Compound 116]	0.358
COc1ccc2c(c1)C(c1sc3ccccc3c1Cl)NCC2 (centres unmarked) [Compound 124]	0.06
Clc1cccc2c1CCNC2c1sc2ccccc2c1Cl (centres unmarked) [Compound 125]	0.122
COc1cc2c(cc1OC)C(c1sc3cc(OC)c(OC)cc3c1Cl)NCC2 (centres unmarked) [Compound 126]	0.059
Cc1cccc2sc(C3NCCc4c(F)cccc43)c(Cl)c12 (centres unmarked) [Compound 127]	0.044
COc1ccc2c(c1)C(c1sc3cccc(C)c3c1Cl)NCC2 (centres unmarked) [Compound 128]	0.06
CCN1CCc2cc(OC)c(OC)cc2C1c1sc2ccccc2c1Cl (centres unmarked) [Compound 129]	0.07

Same assay, conditions: 10 μM; Table Y, commercially available compounds

Compound	Normalized ratio of PI uptake (10 μM)
COc1ccc(-c2n[nH]cc2CN(C)Cc2cc3ccccc3s2)cc1F [Ambcb42783454 #13, reference compound]	0.266

Same assay, conditions: Table X

Compound	IC50 [µM]
COc1cc(OC)c2c(C)c(Cc3ccc(Cl)cc3)c(=O)[nH]c2c1 [Compound 93]	0.21
COc1cc(OC)c2c(C)c(Cc3cccc(Cl)c3)c(=O)[nH]c2c1 [Compound 94]	0.65
Cc1ccc(N(Cc2ccncc2)C(=O)c2sc3ccccc3c2Cl)c(C)c1 [Compound 98]	2.53
COc1ccc(C)c(N(Cc2cccc(C)n2)C(=O)c2sc3ccccc3c2Cl)c1 [Compound 102]	1.61
COc1ccc(C)c(N(CC(=O)c2cccs2)C(=O)c2sc3ccccc3c2Cl)c1 [Compound 103]	0.81
Cc1ccc(N(Cc2ccc3ccccc3n2)C(=O)c2sc3ccccc3c2Cl)c(C)c1 [Compound 104]	0.98
COc1ccc(C)c(N(Cc2ccc3ccccc3n2)C(=O)c2sc3ccccc3c2Cl)c1 [Compound 105]	0.86
Cc1ccc(N(Cc2cccnc2)C(=O)c2sc3ccccc3c2Cl)c(C)c1 [Compound 106]	1.2
COc1cc2ccnc(-c3sc4ccccc4c3Cl)c2cc1OC [Compound 108]	1.09
COc1cccc2c1CCN=C2c1sc2ccccc2c1Cl [Compound 110]	1.38
Cc1cccc2sc(C3=NCCc4ccc(Cl)cc43)c(Cl)c12 [Compound 116]	4.75
COc1ccc2c(c1)C(c1sc3ccccc3c1Cl)NCC2 (centres unmarked) [Compound 124]	1.13
Clc1cccc2c1CCNC2c1sc2ccccc2c1Cl (centres unmarked) [Compound 125]	4.69
COc1cc2c(cc1OC)C(c1sc3cc(OC)c(OC)cc3c1Cl)NCC2 (centres unmarked) [Compound 126]	1.03
Cc1cccc2sc(C3NCCc4c(F)cccc43)c(Cl)c12 (centres unmarked) [Compound 127]	0.93
COc1ccc2c(c1)C(c1sc3cccc(C)c3c1Cl)NCC2 (centres unmarked) [Compound 128]	0.43
CCN1CCc2cc(OC)c(OC)cc2C1c1sc2ccccc2c1Cl (centres unmarked) [Compound 129]	2.23

Same assay, conditions: Table Y, commercially available compounds

Compound	IC50 [µM]
COc1ccc(-c2n[nH]cc2CN(C)Cc2cc3ccccc3s2)cc1F [Ambcb42783454 #13, reference compound]	4.7
